Patent EP1586565A1, “Substituted polycyclic aryl and heteroaryl pyrazinones useful for selective inhibition of the coagulation cascade” (Pharmacia Corporation, priority 1999, dated 2000)

Target: T1, Human factor Xa (Homo sapiens, UniProt P00742)
T1 construct: leads from XII to XIIa to XIa to IXa and to the conversion of X to Xa; purchased Enzyme Research Laboratories, South Bend IN
Test: Xa Assay
Type: biochemical
Conditions: for IC50 or % Inhibition Factor Xa (30 µM): % inhibition at 30 µM (cells with % or %@30, bare 0)

T1 sequence (P00742 235-488 limits assumed): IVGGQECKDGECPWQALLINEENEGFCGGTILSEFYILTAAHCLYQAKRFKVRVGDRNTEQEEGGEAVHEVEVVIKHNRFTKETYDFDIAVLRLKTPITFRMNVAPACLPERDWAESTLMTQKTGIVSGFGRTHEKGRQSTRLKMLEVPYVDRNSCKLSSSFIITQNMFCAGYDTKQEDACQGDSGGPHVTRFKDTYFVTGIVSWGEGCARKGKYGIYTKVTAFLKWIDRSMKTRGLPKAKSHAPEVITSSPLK
T1 sequence (P00742 41-179 limits assumed): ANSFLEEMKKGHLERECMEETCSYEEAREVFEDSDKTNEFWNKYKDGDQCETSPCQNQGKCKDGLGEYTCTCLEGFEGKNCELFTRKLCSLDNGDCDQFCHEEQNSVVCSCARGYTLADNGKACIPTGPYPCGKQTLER

Cc1c(Cl)nc(NCCc2ccncc2)c(=O)n1CC(=O)NCc1ccc(C(=N)N)cc1 [1471-5]
IC50 or % Inhibition Factor Xa (30 µM): 12%

N=C(N)c1ccc(CNC(=O)Cn2c(-c3ccccc3)c(Cl)nc(NCCc3ccc(Cl)c(Cl)c3)c2=O)cc1 [1507-44]
IC50 or % Inhibition Factor Xa (30 µM): 9%

N=C(N)c1ccc(CNC(=O)Cn2c(-c3ccccc3)c(Cl)nc(NCc3cc(C(F)(F)F)ccc3F)c2=O)cc1 [1512-27]
IC50 or % Inhibition Factor Xa (30 µM): 3%

O=C(Cn1c(-c2ccc(-c3ccccc3)cc2)c(Cl)nc(NCc2ccccc2)c1=O)NCCc1ccncc1 [Example E-0109]
% Inhibition Factor Xa (100 µM): 3%

CC(C)Nc1nc(Cl)c(-c2cc(N)ccc2F)n(CC(=O)NCc2ccc(C(=N)N)cc2F)c1=O [compound 73]
IC50 or % Inhibition Factor Xa (30 µM): 0%

O=C(Cn1c(-c2cccc(Cl)c2)c(Cl)nc(NCc2ccccc2)c1=O)NCCc1ccncc1 [Example E-0085]
% Inhibition Factor Xa (100 µM): 0%

Cc1c(Cl)nc(NCc2ccccc2)c(=O)n1CC(=O)NCc1ccc(C(=N)N)cc1 [1471-1]
IC50 or % Inhibition Factor Xa (30 µM): 10%

N=C(N)c1ccc(CNC(=O)Cn2c(-c3ccccc3)c(Cl)nc(NCCc3cccc(C(F)(F)F)c3)c2=O)cc1 [1512-41]
IC50 or % Inhibition Factor Xa (30 µM): 4%

N=C(N)c1ccc(CNC(=O)Cn2c(-c3ccc(Cl)cc3)c(Cl)nc(NCCc3cccc(Cl)c3)c2=O)cc1 [1471-22]
IC50 or % Inhibition Factor Xa (30 µM): 28%

CCc1c(Cl)nc(NCCc2ccccc2)c(=O)n1CC(=O)NCc1ccc(C(=N)N)cc1 [1471-63]
IC50 or % Inhibition Factor Xa (30 µM): 2%

COc1ccc(CCNc2nc(Cl)c(-c3ccccc3)n(CC(=O)NCc3ccc(C(=N)N)cc3)c2=O)cc1OC [1512-05]
IC50 or % Inhibition Factor Xa (30 µM): 10%

CCc1c(Cl)nc(NCCN2CCOCC2)c(=O)n1CC(=O)NCc1ccc(C(=N)N)cc1 [1471-60]
IC50 or % Inhibition Factor Xa (30 µM): 0%

COc1ccc(-c2c(Cl)nc(NCCc3ccc(Cl)cc3)c(=O)n2CC(=O)NCc2ccc(C(=N)N)cc2)cc1 [1471-34]
IC50 or % Inhibition Factor Xa (30 µM): 24%

N=C(N)c1ccc(CNC(=O)Cn2c(-c3ccccc3)c(Cl)nc(NCCCn3ccnc3)c2=O)cc1 [1507-05]
IC50 or % Inhibition Factor Xa (30 µM): 10%

C[C@H](C(=O)NCc1ccc(C(=N)N)cc1)n1c(-c2ccccc2)c(Cl)nc(NCCc2ccccc2)c1=O [1517-17]
IC50 or % Inhibition Factor Xa (30 µM): 0%

N=C(N)c1ccc(CNC(=O)Cn2c(-c3ccccc3)c(Cl)nc(NC3CCS(=O)(=O)C3)c2=O)cc1 (stereo not shown) [1507-36]
IC50 or % Inhibition Factor Xa (30 µM): 0%

O=C(Cn1c(-c2ccc(Cl)cc2)c(Cl)nc(NCc2ccccc2)c1=O)NCCc1ccncc1 [Example E-0025]
% Inhibition Factor Xa (100 µM): 0%

N=C(N)NC/C=C\CNC(=O)Cn1c(-c2ccccc2)cnc(NCCc2ccccc2)c1=O [Example 37]
IC50 or % Inhibition Factor Xa (30 µM): 0%

CN1CCCC1CCNc1nc(Cl)c(-c2ccccc2)n(CC(=O)NCc2ccc(C(=N)N)cc2)c1=O (stereo not shown) [1512-46]
IC50 or % Inhibition Factor Xa (30 µM): 10%

N=C(N)c1ccc(CNC(=O)Cn2c(-c3c(Cl)cccc3Cl)c(Cl)nc(NC3CCC3)c2=O)cc1 [1517-12]
IC50 or % Inhibition Factor Xa (30 µM): 0%

N=C(N)c1ccc(CNC(=O)Cn2c(-c3ccccc3)c(Cl)nc(NCc3cc(F)c(F)c(F)c3)c2=O)cc1 [1512-32]
IC50 or % Inhibition Factor Xa (30 µM): 5%

N=C(N)c1ccc(CNC(=O)Cn2c(-c3ccc4c(c3)OCO4)c(Cl)nc(NCc3ccccc3)c2=O)cc1 [1471-41]
IC50 or % Inhibition Factor Xa (30 µM): 34%

Nc1n[nH]c2cc(CNC(=O)Cn3c(-c4ccccc4)cnc(NCCc4ccccc4)c3=O)ccc12 [Example 39]
IC50 or % Inhibition Factor Xa (30 µM): 0%

CC(C)Nc1nc(Cl)c(-c2cccc(C(=O)O)c2)n(CC(=O)NCc2ccc(C(=N)N)cc2)c1=O [Example 65]
IC50 or % Inhibition Factor Xa (30 µM): 12%

N=C(N)c1ccc(CNC(=O)Cn2c(-c3ccccc3)c(Cl)nc(NCc3cc(F)ccc3F)c2=O)cc1 [1512-36]
IC50 or % Inhibition Factor Xa (30 µM): 9%

Cc1c(Cl)nc(NCc2ccncc2)c(=O)n1CC(=O)NCc1ccc(C(=N)N)cc1 [1471-3]
IC50 or % Inhibition Factor Xa (30 µM): 0%

Cc1c(Cl)nc(NCCN2CCOCC2)c(=O)n1CC(=O)NCc1ccc(C(=N)N)cc1 [1471-4]
IC50 or % Inhibition Factor Xa (30 µM): 0%

CC(C)Nc1nc(Cl)c(-c2ccc(Cl)nc2)n(CC(=O)NCc2ccc(C(=N)N)cc2F)c1=O [compound 74]
IC50 or % Inhibition Factor Xa (30 µM): 13%

N=C(N)c1ccc(CNC(=O)Cn2c(-c3ccccc3)c(Cl)nc(NCCC3=CCCCC3)c2=O)cc1 [1507-17]
IC50 or % Inhibition Factor Xa (30 µM): 16%

N=C(N)c1ccc(CNC(=O)Cn2c(-c3ccccc3)c(Cl)nc(NCc3cc(Cl)ccc3Cl)c2=O)cc1 [1512-35]
IC50 or % Inhibition Factor Xa (30 µM): 4%

N=C(N)c1ccc(CNC(=O)Cn2c(-c3ccccc3)c(Cl)nc(NC3CCCCCC3)c2=O)cc1 [1512-16]
IC50 or % Inhibition Factor Xa (30 µM): 10%

Cc1c(Cl)nc(NCCc2ccc(Cl)cc2)c(=O)n1CC(=O)NCc1ccc(C(=N)N)cc1 [1471-2]
IC50 or % Inhibition Factor Xa (30 µM): 10%

N=C(N)c1ccc(CNC(=O)Cn2c(-c3ccc4c(c3)OCO4)c(Cl)nc(NCCc3cccnc3)c2=O)cc1 [1471-48]
IC50 or % Inhibition Factor Xa (30 µM): 17%

N=C(N)c1ccc(CNC(=O)Cn2c(-c3ccccc3)c(Cl)nc(NC3CCC3)c2=O)cc1 [1507-21]
IC50 or % Inhibition Factor Xa (30 µM): 23%

C[C@@H](C(=O)NCc1ccc(C(=N)N)cc1)n1c(-c2ccccc2)c(Cl)nc(NCCc2ccccc2)c1=O [1517-15]
IC50 or % Inhibition Factor Xa (30 µM): 0%

N=C(N)c1ccc(CNC(=O)Cn2c(-c3cccc(Cl)c3)c(Cl)nc(NCc3ccncc3)c2=O)cc1 [1471-27]
IC50 or % Inhibition Factor Xa (30 µM): 16%

CSCC(C(=O)NCc1ccc(C(=N)N)cc1)n1c(-c2ccccc2)c(Cl)nc(NCCc2ccccc2)c1=O (stereo not shown) [1517-16]
IC50 or % Inhibition Factor Xa (30 µM): 0%

O=C(Cn1c(-c2cccc(Cl)c2)c(Cl)nc(NCCc2cccc(Cl)c2)c1=O)NCCc1cccnc1 [Example E-0080]
% Inhibition Factor Xa (100 µM): 4%

COC(=O)c1cccc(-c2c(Cl)nc(NC(C)C)c(=O)n2CC(=O)NCc2ccc(C(=N)N)cc2)c1 [Example 64]
IC50 or % Inhibition Factor Xa (30 µM): 19%

Cc1c(Cl)nc(NCCc2cccc(Cl)c2)c(=O)n1CC(=O)NCc1ccc(C(=N)N)cc1 [1471-6]
IC50 or % Inhibition Factor Xa (30 µM): 14%

O=C(Cn1c(-c2ccc(Cl)cc2)c(Cl)nc(NCCc2cccnc2)c1=O)NCCc1ccncc1 [Example E-0029]
% Inhibition Factor Xa (100 µM): 0%

COc1cccc(CNc2nc(Cl)c(-c3ccccc3)n(CC(=O)NCc3ccc(C(=N)N)cc3)c2=O)c1OC [1512-02]
IC50 or % Inhibition Factor Xa (30 µM): 3%

COc1ccc(-c2c(Cl)nc(NCCc3ccc(Cl)cc3)c(=O)n2CC(=O)NCCc2ccncc2)cc1 [Example E-0106]
% Inhibition Factor Xa (100 µM): 3%

N=C(N)c1ccc(CNC(=O)Cn2c(-c3cccc(Cl)c3)c(Cl)nc(NCCc3ccncc3)c2=O)cc1 [1471-29]
IC50 or % Inhibition Factor Xa (30 µM): 21%

N=C(N)c1ccc(CNC(=O)Cn2c(-c3ccccc3)c(Cl)nc(NC3CCc4ccccc43)c2=O)cc1 (stereo not shown) [1507-02]
IC50 or % Inhibition Factor Xa (30 µM): 9%

N=C(N)c1ccc(CNC(=O)Cn2c(-c3ccccc3)c(Cl)nc(NCc3ccncc3)c2=O)cc1 [1471-11]
IC50 or % Inhibition Factor Xa (30 µM): 9%

N=C(N)c1ccc(CNC(=O)Cn2c(-c3cccc(Cl)c3)c(Cl)nc(NCCc3cccc(Cl)c3)c2=O)cc1 [1471-30]
IC50 or % Inhibition Factor Xa (30 µM): 41%

C[C@@H](C(=O)NCc1ccc(C(=N)N)cc1)n1c(-c2ccccc2)c(Cl)nc(NCc2ccccc2)c1=O [1517-03]
IC50 or % Inhibition Factor Xa (30 µM): 0%

CC(C)Nc1nc(Cl)c(-c2cccc(N)c2)n(CC(=O)NCc2ccc(C(=N)N)c(F)c2)c1=O [Example 42]
IC50 or % Inhibition Factor Xa (30 µM): 0%

N=C(N)c1ccc(CNC(=O)Cn2c(-c3ccccc3)c(Cl)nc(NCc3ccccc3)c2=O)cc1 [1471-9]
IC50 or % Inhibition Factor Xa (30 µM): 29%

O=C(Cn1c(-c2ccc(Cl)cc2)c(Cl)nc(NCCc2cccc(Cl)c2)c1=O)NCCc1ccncc1 [Example E-0027]
% Inhibition Factor Xa (100 µM): 0%

N=C(N)c1ccc(CNC(=O)Cn2c(-c3ccsc3)c(Cl)nc(NCCc3cccc(Cl)c3)c2=O)cc1 [1517-19]
IC50 or % Inhibition Factor Xa (30 µM): 0%

O=C(Cn1c(-c2ccc(Cl)cc2)c(Cl)nc(NCCc2ccc(Cl)cc2)c1=O)NCCc1ccncc1 [Example E-0028]
% Inhibition Factor Xa (100 µM): 0%

N=C(N)c1ccc(CNC(=O)Cn2c(-c3ccc4c(c3)OCO4)c(Cl)nc(NCCc3ccc(Cl)cc3)c2=O)cc1 [1471-42]
IC50 or % Inhibition Factor Xa (30 µM): 15%

CC1CCCC(Nc2nc(Cl)c(-c3ccccc3)n(CC(=O)NCc3ccc(C(=N)N)cc3)c2=O)C1C (stereo not shown) [1512-23]
IC50 or % Inhibition Factor Xa (30 µM): 6%

COc1ccc(-c2c(Cl)nc(NCCc3cccc(Cl)c3)c(=O)n2CC(=O)NCCc2ccncc2)cc1 [Example E-0035]
% Inhibition Factor Xa (100 µM): 0%

N=C(N)c1ccc(CNC(=O)Cn2c(-c3cccc(N)c3)c(Cl)nc(NC3CCC3)c2=O)cc1F [Example 40]
IC50 or % Inhibition Factor Xa (30 µM): 0%

O=C(Cn1c(-c2cccc(Cl)c2)c(Cl)nc(NCCc2cccc(Cl)c2)c1=O)NCCc1cccnc1 [Example E-0092]
% Inhibition Factor Xa (100 µM): 3%

N=C(N)c1ccc(CNC(=O)Cn2c(-c3ccc(Cl)cc3)c(Cl)nc(NCCc3ccc(Cl)cc3)c2=O)cc1 [1471-18]
IC50 or % Inhibition Factor Xa (30 µM): 26%

N=C(N)c1ccc(CNC(=O)Cn2c(-c3cccc(Cl)c3)c(Cl)nc(NCCc3cccnc3)c2=O)cc1 [1471-32]
IC50 or % Inhibition Factor Xa (30 µM): 25%

N=C(N)c1ccc(CNC(=O)Cn2c(-c3ccccc3)c(Cl)nc(NC3CCS(=O)(=O)C3)c2=O)cc1 (stereo not shown) [1512-19]
IC50 or % Inhibition Factor Xa (30 µM): 3%
